The results in this text go back to ChEMBL document CHEMBL1130163, “Synthesis and inhibition studies of sulfur-substituted squalene oxide analogues as mechanism-based inhibitors of 2,3-oxidosqualene-lanosterol cyclase” (J Med Chem, 1997).

For this assay, the target named is T1, Lanosterol synthase (Rattus norvegicus, UniProt P48450).
T1 sequence (P48450 whole entry): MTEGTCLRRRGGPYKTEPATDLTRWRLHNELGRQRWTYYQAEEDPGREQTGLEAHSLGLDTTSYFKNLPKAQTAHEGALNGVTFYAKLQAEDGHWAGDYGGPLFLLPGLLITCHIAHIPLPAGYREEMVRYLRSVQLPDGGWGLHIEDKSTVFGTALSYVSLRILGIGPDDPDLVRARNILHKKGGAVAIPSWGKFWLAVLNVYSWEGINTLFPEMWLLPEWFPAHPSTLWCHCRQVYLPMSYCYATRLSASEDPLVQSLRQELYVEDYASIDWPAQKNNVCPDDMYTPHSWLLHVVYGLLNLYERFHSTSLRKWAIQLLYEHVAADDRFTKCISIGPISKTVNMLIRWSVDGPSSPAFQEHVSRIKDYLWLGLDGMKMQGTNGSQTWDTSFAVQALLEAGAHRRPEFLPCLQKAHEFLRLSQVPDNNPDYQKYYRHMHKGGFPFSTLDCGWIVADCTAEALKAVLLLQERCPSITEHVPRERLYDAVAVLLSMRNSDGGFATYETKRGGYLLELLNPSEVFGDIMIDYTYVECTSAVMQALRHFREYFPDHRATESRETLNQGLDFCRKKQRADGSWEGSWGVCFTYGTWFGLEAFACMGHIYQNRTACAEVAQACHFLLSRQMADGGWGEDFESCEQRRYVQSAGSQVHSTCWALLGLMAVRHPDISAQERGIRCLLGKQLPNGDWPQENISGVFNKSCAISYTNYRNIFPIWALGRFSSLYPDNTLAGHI
Kind of assay: Inhibition against rat liver Oxidosqualene-lanosterol cyclase.

`CC(C)=CCCC1(C)OC1CC/C(C)=C/CC/C=C(\C)CCCC(C)CCC1OC1C` (stereo unspecified) displayed a half-inhibitory concentration (IC50) of 110 nM.

The IC50 is the concentration needed to halve the response being measured. High values mean lower potency, low ones higher potency.
